From patent US20060264367A1, “Prevention of fibrosis following cardiac injury” (Howard Florey Institute, priority 2005, published 2006)

Tests used:
Type in all cases: cell-based, rat
[1] = tested on: atrial and ventricular fibroblasts; test: Cardiac fibroblast proliferation (cell counts and [3H]-thymidine incorporation); details: for increase in fibroblast proliferation: 3 days; for increase in atrial and ventricular fibroblast proliferation: 72 h
Experimental: The ability of rhRLX to modulate cardiac fibroblast proliferation was investigated in the absence or presence of Ang II and IGF-I, which both potently stimulate fibroblast proliferation. Cardiac fibroblasts were plated at an equal density of 10^4 cells/96-well plate in DMEM-FBS. Twenty-four hours later, media were changed to DMEM supplemented with lactalbumin hydrolysate, and cells were labelled with [^3H]-thymidine (3 μCi/ml) in the presence of rhRLX (100 ng/ml) alone or in combination with IGF-I (0.1 μg/ml, 0.5 μg/ml, and 1 μg/ml) or Ang II (10^−8 M and 10^−7 M) for 72 hours. [^3H]-thymidine incorporation and cell counts, using a hemocytometer, were evaluated.

[2] = tested on: atrial and ventricular fibroblasts; test: Collagen secretion into media by cardiac fibroblasts ([3H]-proline labelling); details: 72 h
Experimental: (§1) Distribution of relaxin and LGR7 expression was determined in atrial myocytes and fibroblasts, ventricular myocytes and fibroblasts, and vascular smooth muscle cells (VSMC). These cells were obtained from neonate rats using standard collagenase digestion methods. Neonate (1 day old) Sprague Dawley rats were used for tissue collection and subsequent cardiac cell isolation and preparation. The cells were maintained in DMEM supplemented with 10% fetal calf serum, penicillin (50 U/ml), and streptomycin (50 μg/ml) (DMEM-FBS). Cardiac fibroblast isolation from myocytes and subsequent preparation were performed as described previously (Gray M O et al. (1998) Cardiovasc Res 40:352-363). These preparations contained more than 95% cardiac fibroblasts as determined by morphological appearance and immunocytochemical staining. Fibroblasts were used between passages 2 and 4 for all studies.
Atrial and ventricular fibroblasts were subjected to TGF-β or Ang II in the absence or presence of rhRLX over 3 days. For the TGF-β studies, cells were treated for 72 hours with rhRLX (100 ng/ml), TGF-β (1 or 2 ng/ml), or a combination of rhRLX (100 ng/ml) and TGF-β (2 ng/ml) in serum-free DMEM supplemented with lactalbumin hydrolysate. For the Ang II studies, fibroblasts were treated with Ang II (1×10^−7 M and 5×10^−7 M) or a combination of rhRLX (100 ng/ml) and Ang II (1 or 5×10^−7 M). TGF-B3 (1 ng/ml) alone induced an 85-95% increase in secretion of interstitial (types I and III) collagen into the cultured media.
For measurement of collagen synthesis, collagen was biosynthetically labelled with [^3H]-proline in the presence of ascorbate and β-aminopropionitrile, as previously described (Unemori et al, supra). For measurement of collagen deposition into the cell matrix, cell layers (per well) were isolated and hydrolyzed with 6 M hydrochloric acid for measurement of hydroxyproline content, as described previously (Samuel C S et al. (1996) Endocrinology 137:3884-3890; Gallop P M, Paz M A (1975) Physiol Rev 55:418487). […]

[3] = tested on: atrial and ventricular fibroblasts; test: Collagen deposition into the cell matrix (hydroxyproline content of cell layers); details: stimulus alone, 72 h
Experimental: as §1
Fibroblasts were also plated at 5/mm^2 and grown for 7 days in the absence or presence of rhRLX (100 ng/ml). […]
Collagen content of cell layers from untreated fibroblasts and cells treated with rhRLX (100 ng/ml) alone, TGF-β (2 ng/ml) alone, or TGF-β (2 ng/ml) and rhRLX (100 ng/ml) was measured after 72 hours of culture. The collagen content of cell layers from untreated atrial fibroblasts and cells treated with Ang II (10^−7 M) alone or Ang II (10^−7 M) and rhRLX (100 ng/ml) was measured after 72 hours of culture. […]

MMP-2 = test: Gelatin zymography of conditioned media, MMP-2 expression; details: TGF-β 2 ng/ml alone, 72 h
Experimental: The effects of rhRLX on MMP expression, were determined using gelatin zymography of conditioned media, performed as previously described (Talhouk R S et al. (1991) 112:439-449). Briefly, the neonatal cardiac cells (1×10^5/cm^2) were treated with either TGF-β (2 ng/ml) or Ang II (10^−7 M) in the absence or presence of rhRLX (100 ng/ml) for 72 h; the final 24 hours of treatment were under serum-free conditions. Equal aliquots of the collected media were then analyzed on zymogram gels consisting of 7.5% acrylamide and 1 mg/ml gelatin, and the gels were subsequently treated as previously detailed (Talhouk R S, supra).

α-SMA = test: Fibroblast differentiation to myofibroblasts, Western blot of α-SMA; details: TGF-β 2 ng/ml or Ang II 10^−7 M alone, 72 h, ventricular fibroblasts
From the text: In the normal heart, cardiac fibroblasts are relatively quiescent, but upon pathological stimuli to the heart they proliferate and differentiate into activated myofibroblasts. These myofibroblasts, the hallmarks of which are α-SMA expression and production of prodigious amounts of collagen, are important contributors to fibrosis and the pathology of the heart (Eghbali M (1998) Basic Res Cardiol 87(Suppl 2):183-189; Bouzegrhane F, Thibault G (2002) Cardiovasc Res 53:304-312). Ventricular fibroblast differentiation to myofibroblasts was analyzed by measuring α-SMA expression by ventricular fibroblasts. In all experiments, an equal amount of total protein (10 μg/sample) was analyzed. α-SMA was sized at 43 kDa under nonreducing conditions when detected with a monoclonal antibody. In some experiments, cells were either untreated or treated with TGF-β (2 ng/ml) alone or TGF-β (2 ng/ml) and rhRLX (100 ng/ml) for 72 hours. In other experiments, cells were either untreated or treated with Ang II (10^−7 M) alone or Ang II (10^−7 M) and rhRLX (100 ng/ml) for 72 hours.
Fibroblast differentiation into myofibroblasts was determined by α-SMA expression. […] Cell layers were trypsinized, and the protein was extracted using Trizol reagent (according to the manufacturer's instructions; Life Technologies, Gaithersburg, Md.) and analyzed by the Bio-Rad dye-binding protein assay (Bio-Rad, Richmond, Calif.). […]

Row | Substance | increase in fibroblast proliferation ([1]; IGF-I 0.1 μg/ml) | increase in fibroblast proliferation ([1]; IGF-I 0.5 μg/ml) | increase in fibroblast proliferation ([1]; IGF-I 1.0 μg/ml) | increase in secretion of interstitial (types I and III) collagen into the cultured media ([2]; 1 ng/ml alone) | up-regulation of collagen deposition into the matrix of fibroblasts [3] | MMP-2 expression (MMP-2) | increase in α-SMA expression (α-SMA) | increase in collagen secretion ([2]; Ang II 1×10^−7 M alone) | increase in collagen secretion ([2]; Ang II 5×10^−7 M alone) | increase in atrial and ventricular fibroblast proliferation ([1]; Ang II 10^−7 M) [%] | increase in atrial and ventricular fibroblast proliferation ([1]; Ang II 10^−8 M)
1 | IGF-I: growth factor that potently stimulates fibroblast proliferation | 27-30% | 36-40% | 34-40% |  |  |  |  |  |  |  | 
2 | TGF-β |  |  |  | 85-95% | 65-85% | modest increase | 85-95% |  |  |  | 
3 | angiotensin II (DRVYIHPF; Angiotensin-2; UniProt P01019 25-32, looked up) [Ang II, angiotensin II, profibrotic stimulus obtained from Sigma-Aldrich] |  |  |  |  | 20-50% |  | 25-35% | 50-60% | 15-20% | 6473 | 63-75%
